The source of these data is patent publication US20250114313A1, “OLIGO-BENZAMIDE ANALOGS AND THEIR USE IN CANCER TREATMENT” (BOARD OF REGENTS, THE UNIVERSITY OF TEXAS SYSTEM, priority 2022, published 2025).

The test system of series [1] is 21 human preclinical TNBC cell line models. Description: CellTiter-Glo cell viability, TNBC cell lines. In kind it is cell-based. The following applies: 21 TNBC cell lines, read-out: anti-proliferative IC50, CellTiter-Glo. The method, then:
(§1) Cell viability assays: Cells were seeded in 96-well plates (2×10^3 cells/well) one day before the treatment. Cells were treated with varying concentrations of ERX-41 or ERX-11 analogs for 3-6 days. Then effects of ERX-41 or ERX-11 analogs on cell viability were measured in triplicate or sextuplicate with multiple biological replicates using the WST-1 (Promega), MTT as previously described^33 or CellTiter-Glo 2.0 (Promega) assays.
On the technique in general: Cellular ATP, detected with luciferase, serves as a proxy for viable cell number.

For series [2], the system named is HMEC cells. Put plainly: Live cell imaging with SYTOX Green, cell death in HMEC. In kind it is cell-based. The protocol:
Live cell imaging: Live cell images were acquired by Lionheart FX automated microscope (BioTek). Cells were plated one day before the experiment. For cell death assay, 0.2 μM SYTOX Green was added into the plate 15 min before the experiment.

Series [3] concerns LIPA KO SUM-159 cells. Put plainly: Live cell confocal imaging of ER tubule width, SUM-159 LIPA KO. The following applies: 1 μM. Format: cell-based, Human. The protocol: Live cell confocal and Airyscan imaging: To visualize ER structure, stable SUM-159 cell lines expressing mCherry-RAMP4 were established. pLenti-X1-hygro-mCherry-RAMP4 was purchased from Addgene (Addgene #118391; //n2t.net/addgene:118391; RRID:Addgene_118391) (via Jacob Corn).^35 The live cell images were acquired by Confocal Zeiss LSM880 Airyscan. ER tubule width was calculated by drawing 1px-wide line scans perpendicular to the long axis of individual ER tubules. In MATLAB, the peak intensity along each line scan was determined and the distance between the half maximum intensity on either side of the peak was measured. The code for this analysis is available at: //github.com/andmoo91/HalfMaxScript.

Series [4] has as its system TNBC cells. Description: Global de novo protein synthesis (puromycin labeled nascent proteins), TNBC cells. In kind it is cell-based, Human. Particulars: 1 μM. The protocol:
(§2) Western blotting: Whole cell lysates from breast cancer cells were prepared with 2× sample buffer (60 mM Tris-HCl, pH 6.8, 2% sodium dodecyl sulfate, 10% glycerol), and before loading mixed with loading buffer (5% 2-mercaptoethanol, 0.1% bromophenol blue) and boiled for denaturation, as previously described.^33 Proteins were separated by SDS-PAGE and subjected to Western analysis using antibodies. To detect nascent translated proteins, puromycin (final concentration 10 μg/mL) was added into cell plates 30 minutes before harvesting cells. Then samples were subjected to the Western blotting. Nascent proteins were detected by anti-puromycin antibody.

Series [5] addresses T1, ER Alpha-LBD (GST) (Homo sapiens, UniProt P03372).
T1 construct: 3.5 nM ER Alpha-LBD (GST); purchased life technologies A15885
T1 sequence (P03372 311-547 limits assumed): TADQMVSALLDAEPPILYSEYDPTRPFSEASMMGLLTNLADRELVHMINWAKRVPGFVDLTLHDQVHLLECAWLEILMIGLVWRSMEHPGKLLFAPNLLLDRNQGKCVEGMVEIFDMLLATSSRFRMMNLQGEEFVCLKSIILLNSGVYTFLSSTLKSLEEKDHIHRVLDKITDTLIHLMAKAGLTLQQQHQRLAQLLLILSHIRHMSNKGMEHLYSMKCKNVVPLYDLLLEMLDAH
Put plainly: LanthaScreen TR-FRET ER alpha Coactivator Assay, antagonist mode. Particulars: 2 h incubation. In kind it is binding. On the technique in general: TR-FRET usually uses a lanthanide donor and a delayed reading to cut background.

For series [6], the system named is SUM-159 LIPA KO xenografts. Put plainly: SUM-159 LIPA KO xenografts. Particulars: i.p., 10 mg/kg/day. Format: in vivo, SCID mice. The protocol: Knockout studies: For xenograft knockout tumor models, 1.8×10^6SUM159 parental, or 1.8×10^6SUM159-LIPA KO cells were harvested with 1% trypsin-EDTA, washed and resuspended in sterile PBS. Cells were initially implanted into the mammary fat pads of six-week-old female C.B-17 (SCID) mice purchased from Envigo (Indianapolis, IN, USA). Mice were monitored twice weekly for tumor growth measured by Vernier calipers where tumor volume was calculated by the formula (length×width^2)/2. Tumors were dissected into 2 mm cubes when they reached 800 mm^3 in size and subsequently implanted into the mammary fat pad of twelve SCID female mice. Once tumor fragments reached 150 mm^3 in size, mice were randomly divided into vehicle group (n=6, control, 0.3% Hydroxy cellulose, i.p.) and treatment group (n=6, ERX-41, 10 mg/kg/day/i.p.). Institutional guidelines were followed to determine experimental end points.

In series [7] the test system is SUM-159 cells with LIPA-KO reconstituted with LIPA constructs. Put plainly: Response of SUM-159 LIPA KO cells reconstituted with LIPA constructs (CellTiter-Glo, western, RT-qPCR). In kind it is cell-based, Human. The method, then:
as §1
Lentiviral constructs cloning: LentiCRISPRv2 vector was used for CRSPR KO experiments. sgRNAs, which were chosen from human CRISPR knockout pooled library, were cloned into lentiCRISPRv2 vector^34. Human LIPA cDNA (GenBank: BC012287) or mouse LIPA cDNA (NM_021460) were clone into pWPI for over expression experiments. For TurboID experiment, the LIPA-TurboID sequence was cloned into pCW57-MCS1-2A-MCS2 vector. LentiCRISPR v2 was purchased from Addgene (Addgene #52961; //n2t.net/addgene:52961; RRID:Addgene_52961) (via Feng Zhang). pWPI was purchased from Addgene (Addgene #12254; //n2t.net/addgene:12254; RRID:Addgene_12254) (via Didier Trono). pCW57-MCS1-2A-MCS2 was purchased from Addgene (#71782) (via Adam Karpf). Human LIPA gene is referred as LIPA, while mouse LIPA gene is referred as mLIPA in this disclosure. Since LIPA overexpression was introduced in LIPA CRISPR KO background, to avoid being targeted by CRISPR-cas9, the LIPA sgRNA target sequence including PAM, tt aac cga att cct cat ggg agg, was mutated to tt aac cga att cct caC ggA agA in all of the LIPA overexpression constructs without protein coding change. In-Fusion Cloning kit (Takara) was used to generate different mutants of LIPA.
as §2
Real-time quantitative PCR (RT-qPCR): Total RNA was prepared from breast cancer cells using the RNeasy Mini Kit (Qiagen) according to the manufacturer protocols. Subsequently, total RNAs were reverse transcribed into cDNA using iScript Reverse Transcription Supermix (Bio-rad) and by using SYBR Green on an Illumina Real-Time PCR system.

Series [8] relates to TNBC cells. Description: Ca^2+ flux in TNBC cells. In kind it is cell-based. Particulars: data not shown.

“Also recorded” adds a separate entry of the source. Some results are limits rather than exact numbers.

A word on the IC50: it is the point on the concentration scale where inhibition reaches its midpoint. Regarding `CC(C)COc1cc(C(=O)Nc2ccc(C(=O)N[C@H]3CC[C@H](C)CC3)cc2OCC(C)C)ccc1NC(=O)c1ccc([N+](=O)[O-])c(OCCO)c1` [ERX-41], the IC50 is less than 0.25 µM in series [1] and 0.25 µM in series [7] (Homo sapiens, SUM159, SUM-159 LIPA-KO + WT-LIPA, read-out: IC50 after reconstitution of WT-LIPA (KO+WT)). The “induction of cell death in HMEC” value in series [2] was “did not significantly induce cell death”. Also, the “ER tubule diameter in LIPA KO cells” value in series [3] was “no significant changes in ER tubule diameter”. For the same compound, the “global de novo protein synthesis” value in series [4] is “blocked; also recorded: blocks de novo protein synthesis”. Moreover, in series [5], the “interaction with ERα LBD” value is on record as “does not interact with ERG LBD”. Moreover, the “response of LIPA KO xenografts” value in series [6] is recorded as “did not respond”. For the same compound, the “responsiveness with mouse LXXLL sequence or mouse LIPA cDNA” value in series [7] (ER stress and cell death) is listed as “restore responsiveness”. Also, in series [7] (KO+L242P, KO+L239P/L242P, KO+L239P/L242P/L243P), the “proliferation and ER stress with LXXLL point mutants” value is “inability of ERX-41 to affect proliferation or induce ER stress”. For the same compound, the “sensitivity after reconstitution of ΔLXXLL MT-LIPA (KO+ΔLXXLL)” value in series [7] (lipase-competent mutant) is reported as “did not restore sensitivity to ERX-41”. The “sensitivity after reconstitution of H274Y MT-LIPA (KO+H274Y)” value in series [7] (lipase-incompetent mutant) is “restored sensitivity to ERX-41”. Besides, in series [7] (localized to the ER), the “ER stress and proliferation with LIPA with added KDEL sequence” value is “restores the ability of ERX-41 to cause ER stress”. The “ER stress and proliferation with LIPA lacking the signal peptide” value in series [7] (not localized to the ER) is on record as “nor restore the ability of ERX-41 to cause ER stress”. Besides, in series [8], the “Ca^2+ flux within TNBC cells” value was “not able to induce Ca^2+ flux”.
